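These data come from cells grown in 96-well plates and exposed to compound for 48 hours at five concentrations. TGI marks complete inhibition of growth.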
Experiments:
Test in all cases: NCI-60 cell line screen, 48 h
786-0 renal = test system: 786-0 renal
A498 renal = test system: A498 renal
A549 NSCLC = test system: A549 NSCLC
ACHN renal = test system: ACHN renal
BT-549 breast = test system: BT-549 breast
CAKI-1 renal = test system: CAKI-1 renal
CCRF-CEM leukemia = test system: CCRF-CEM leukemia
COLO 205 colon = test system: COLO 205 colon
DU-145 prostate = test system: DU-145 prostate
EKVX NSCLC = test system: EKVX NSCLC
HCC-2998 colon = test system: HCC-2998 colon
HCT-116 colon = test system: HCT-116 colon
HCT-15 colon = test system: HCT-15 colon
HL-60(TB) leukemia = test system: HL-60(TB) leukemia
HOP-62 NSCLC = test system: HOP-62 NSCLC
HOP-92 NSCLC = test system: HOP-92 NSCLC
HS 578T breast = test system: HS 578T breast
HT29 colon = test system: HT29 colon
IGROV1 ovarian = test system: IGROV1 ovarian
K-562 leukemia = test system: K-562 leukemia
KM12 colon = test system: KM12 colon
LOX IMVI melanoma = test system: LOX IMVI melanoma
M14 melanoma = test system: M14 melanoma
MALME-3M melanoma = test system: MALME-3M melanoma
MCF7 breast = test system: MCF7 breast
MDA-MB-231 breast = test system: MDA-MB-231 breast
MDA-MB-435 = test system: MDA-MB-435
MOLT-4 leukemia = test system: MOLT-4 leukemia
NCI-H226 lung = test system: NCI-H226 lung
NCI-H23 lung = test system: NCI-H23 lung
NCI-H460 lung = test system: NCI-H460 lung
NCI-H522 lung = test system: NCI-H522 lung
NCI/ADR-RES ovarian = test system: NCI/ADR-RES ovarian
OVCAR-3 ovarian = test system: OVCAR-3 ovarian
OVCAR-4 ovarian = test system: OVCAR-4 ovarian
OVCAR-5 ovarian = test system: OVCAR-5 ovarian
OVCAR-8 ovarian = test system: OVCAR-8 ovarian
PC-3 prostate = test system: PC-3 prostate
RPMI-8226 leukemia = test system: RPMI-8226 leukemia
RXF 393 renal = test system: RXF 393 renal
SF-268 CNS = test system: SF-268 CNS
SF-295 CNS = test system: SF-295 CNS
SF-539 CNS = test system: SF-539 CNS
SK-MEL-2 melanoma = test system: SK-MEL-2 melanoma
SK-MEL-28 melanoma = test system: SK-MEL-28 melanoma
SK-MEL-5 melanoma = test system: SK-MEL-5 melanoma
SK-OV-3 ovarian = test system: SK-OV-3 ovarian
SN12C renal = test system: SN12C renal
SNB-19 CNS = test system: SNB-19 CNS
SNB-75 CNS = test system: SNB-75 CNS
SR leukemia = test system: SR leukemia
SW-620 colon = test system: SW-620 colon
T-47D breast = test system: T-47D breast
TK-10 renal = test system: TK-10 renal
U251 CNS = test system: U251 CNS
UACC-257 melanoma = test system: UACC-257 melanoma
UACC-62 melanoma = test system: UACC-62 melanoma
UO-31 renal = test system: UO-31 renal

O=C(ON=c1c2ccccc2ccc2ccccc12)c1ccccc1
TGI (786-0 renal): > 62.4 µM
TGI (A498 renal): 50.3 µM
TGI (A549 NSCLC): > 92.7 µM
TGI (ACHN renal): > 100 µM
TGI (BT-549 breast): 64.2 µM
TGI (CAKI-1 renal): 79 µM
TGI (CCRF-CEM leukemia): > 76 µM
TGI (COLO 205 colon): 35.7 µM
TGI (DU-145 prostate): > 100 µM
TGI (EKVX NSCLC): 96.9 µM
TGI (HCC-2998 colon): > 87.7 µM
TGI (HCT-116 colon): 34.1 µM
TGI (HCT-15 colon): > 95.9 µM
TGI (HL-60(TB) leukemia): 29.5 µM
TGI (HOP-62 NSCLC): 59 µM
TGI (HOP-92 NSCLC): 67.5 µM
TGI (HS 578T breast): 59.9 µM
TGI (HT29 colon): > 74.2 µM
TGI (IGROV1 ovarian): > 67.3 µM
TGI (K-562 leukemia): > 58.1 µM
TGI (KM12 colon): 35.6 µM
TGI (LOX IMVI melanoma): > 62.1 µM
TGI (M14 melanoma): 33.5 µM
TGI (MALME-3M melanoma): 50.5 µM
TGI (MCF7 breast): 45.5 µM
TGI (MDA-MB-231 breast): > 65.2 µM
TGI (MDA-MB-435): 42.7 µM
TGI (MOLT-4 leukemia): 16.2 µM
TGI (NCI-H226 lung): 57.9 µM
TGI (NCI-H23 lung): > 100 µM
TGI (NCI-H460 lung): > 80.4 µM
TGI (NCI-H522 lung): 47.3 µM
TGI (NCI/ADR-RES ovarian): 56.3 µM
TGI (OVCAR-3 ovarian): 62.1 µM
TGI (OVCAR-4 ovarian): > 89.1 µM
TGI (OVCAR-5 ovarian): > 100 µM
TGI (OVCAR-8 ovarian): > 67.7 µM
TGI (PC-3 prostate): > 93 µM
TGI (RPMI-8226 leukemia): 73.5 µM
TGI (RXF 393 renal): 23.6 µM
TGI (SF-268 CNS): > 86 µM
TGI (SF-295 CNS): > 73.4 µM
TGI (SF-539 CNS): 32.8 µM
TGI (SK-MEL-2 melanoma): > 58 µM
TGI (SK-MEL-28 melanoma): 56.3 µM
TGI (SK-MEL-5 melanoma): 29.8 µM
TGI (SK-OV-3 ovarian): > 91.1 µM
TGI (SN12C renal): > 68.9 µM
TGI (SNB-19 CNS): > 84.1 µM
TGI (SNB-75 CNS): 99.7 µM
TGI (SR leukemia): 32.4 µM
TGI (SW-620 colon): 43.3 µM
TGI (T-47D breast): 91.4 µM
TGI (TK-10 renal): > 100 µM
TGI (U251 CNS): 39 µM
TGI (UACC-257 melanoma): 93.4 µM
TGI (UACC-62 melanoma): 30.5 µM
TGI (UO-31 renal): 57.4 µM

From PubChem BioAssay (NCI)
